Source: ChEMBL document CHEMBL6109144, “Discovery of New Difluorocyclobutyl Derivatives as Effective Glucagon-Like Peptide-1 Receptor Agonists with Reduced hERG Inhibitory Activities” (J Med Chem, 2025)
pEC50: −log10 of the molar value.

Assays:
[1] = target: Glucagon-like peptide 1 receptor (Homo sapiens, UniProt P43220); assay: Agonist activity at N-terminal hemagglutinin-tagged human GLP-1R expressed in CHO cells co-transfected with pcDNA3.0 assessed as increase in intracellular cAMP accumulation incubated for 30 mins by microplate reader analysis; type: functional, cell-based
[2] = target: hERG (KCNH2) (Homo sapiens, UniProt Q12809); assay: Inhibition of hERG at 10 uM at -80 mV holding potential by whole-cell patch clamp analysis relative to control; type: toxicity
[3] = Half life in Sprague-Dawley rat at 5 mg/kg, po measured up to 24 hrs by LC-MS/MS analysis; type: ADME, organism-based; details: in vivo
[4] = Cmax in Sprague-Dawley rat at 5 mg/kg, po measured up to 24 hrs by LC-MS/MS analysis; type: ADME, organism-based; details: in vivo
[5] = AUC (0 to infinity) in Sprague-Dawley rat at 5 mg/kg, po measured up to 24 hrs by LC-MS/MS analysis; type: ADME, organism-based; details: in vivo
[6] = Observed apparent oral clearance in Sprague-Dawley rat at 5 mg/kg, po measured up to 24 hrs by LC-MS/MS analysis; type: ADME, organism-based; details: in vivo
[7] = Fraction of the dose absorbed in Sprague-Dawley rat at 5 mg/kg, po measured up to 24 hrs by LC-MS/MS analysis; type: ADME, organism-based; details: in vivo, read-out: Fabs
[8] = in vivo; details: Sprague-Dawley, rat, po, 5 mg/kg

Sequence of Glucagon-like peptide 1 receptor (P43220 whole entry): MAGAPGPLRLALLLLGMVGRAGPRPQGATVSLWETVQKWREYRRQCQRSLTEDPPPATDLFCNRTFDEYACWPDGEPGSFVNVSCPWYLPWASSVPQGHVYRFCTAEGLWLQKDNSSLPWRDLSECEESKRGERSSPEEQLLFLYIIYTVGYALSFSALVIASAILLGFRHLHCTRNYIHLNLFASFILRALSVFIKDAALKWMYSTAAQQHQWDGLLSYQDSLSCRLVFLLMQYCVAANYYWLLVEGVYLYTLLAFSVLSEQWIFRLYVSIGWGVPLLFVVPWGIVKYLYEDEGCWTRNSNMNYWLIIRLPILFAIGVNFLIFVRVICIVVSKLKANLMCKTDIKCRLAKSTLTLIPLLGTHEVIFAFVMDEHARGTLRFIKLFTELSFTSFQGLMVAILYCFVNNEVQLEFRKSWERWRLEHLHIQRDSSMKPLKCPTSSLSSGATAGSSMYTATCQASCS
Sequence of hERG (KCNH2) (Q12809 whole entry): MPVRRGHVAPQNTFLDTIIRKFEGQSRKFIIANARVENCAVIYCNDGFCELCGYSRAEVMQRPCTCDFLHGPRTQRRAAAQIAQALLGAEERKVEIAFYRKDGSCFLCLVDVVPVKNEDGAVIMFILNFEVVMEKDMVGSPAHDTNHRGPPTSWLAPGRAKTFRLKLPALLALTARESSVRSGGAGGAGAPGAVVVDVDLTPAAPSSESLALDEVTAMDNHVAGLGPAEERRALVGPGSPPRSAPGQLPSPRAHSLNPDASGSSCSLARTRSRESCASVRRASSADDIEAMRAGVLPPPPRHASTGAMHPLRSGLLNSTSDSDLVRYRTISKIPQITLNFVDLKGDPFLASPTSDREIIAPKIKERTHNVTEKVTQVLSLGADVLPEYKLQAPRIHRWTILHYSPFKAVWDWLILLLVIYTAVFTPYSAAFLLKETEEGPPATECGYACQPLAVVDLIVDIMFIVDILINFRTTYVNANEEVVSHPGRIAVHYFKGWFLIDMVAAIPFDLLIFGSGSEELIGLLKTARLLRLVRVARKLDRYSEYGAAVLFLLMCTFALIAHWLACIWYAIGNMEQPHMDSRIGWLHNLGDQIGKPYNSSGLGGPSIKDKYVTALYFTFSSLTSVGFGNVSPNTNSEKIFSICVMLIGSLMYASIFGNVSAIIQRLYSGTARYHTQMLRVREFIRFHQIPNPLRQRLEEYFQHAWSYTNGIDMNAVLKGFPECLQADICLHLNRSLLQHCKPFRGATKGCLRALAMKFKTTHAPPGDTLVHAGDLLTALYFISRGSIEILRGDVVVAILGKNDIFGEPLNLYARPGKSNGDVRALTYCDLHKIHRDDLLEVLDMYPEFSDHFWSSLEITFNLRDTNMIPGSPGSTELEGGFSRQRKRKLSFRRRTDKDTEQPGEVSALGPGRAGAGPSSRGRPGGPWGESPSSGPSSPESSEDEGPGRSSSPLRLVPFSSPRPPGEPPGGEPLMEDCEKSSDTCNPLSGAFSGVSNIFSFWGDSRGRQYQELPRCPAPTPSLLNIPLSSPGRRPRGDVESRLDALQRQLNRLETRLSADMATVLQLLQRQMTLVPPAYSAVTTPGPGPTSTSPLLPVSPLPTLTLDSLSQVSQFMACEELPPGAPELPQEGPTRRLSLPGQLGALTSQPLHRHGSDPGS

SMILES	pEC50 [1]	other results
N#Cc1ccc(Cc2cccc(OC3CCN(Cc4nc5ccc(C(=O)O)nc5n4C[C@@H]4CCO4)CC3)n2)c2occc12	8.10	–
O=C(O)c1cc2c(nc(CN3CCC(Oc4cccc(OCc5ccc(Cl)cc5)n4)CC3)n2C[C@@H]2CCO2)s1	8.02	–
O=C(O)c1cc2c(nc(CN3CCC(Oc4ccnc(COc5ccc(Cl)cc5)n4)CC3)n2C[C@@H]2CCO2)s1	8.43	–
CC1(c2ccc(COc3cccc(C4=CCN(Cc5nc6ccc(C(=O)O)nc6n5C[C@@H]5CCO5)CC4)n3)c(F)c2)CC(F)(F)C1	8.54	–
O=C(O)c1cc2c(nc(CN3CCC(Oc4cccc(Cc5ccc6cn[nH]c6c5F)n4)CC3)n2C[C@@H]2CCO2)s1	6.75	–
O=C(O)c1cc2c(nc(CN3CCC(Oc4cccc(Cc5ccccc5)n4)CC3)n2C[C@@H]2CCO2)s1	7.06	–
O=C(O)c1cc(F)c2nc(CN3CCN(c4cccc(OCc5ccc(CC(F)F)cc5F)n4)CC3)n(C[C@@H]3CCO3)c2c1	10.07	–
CC1(c2ccc(COc3cccc(-c4ccc(Cc5nc6ccc(C(=O)O)cc6n5C[C@@H]5CCO5)c(F)c4)n3)c(F)c2)CC(F)(F)C1	8.51	–
COc1cc(C#N)ccc1OCc1nccc(OC2CCN(Cc3nc4sc(C(=O)O)cc4n3C[C@@H]3CCO3)CC2)n1	9.35	–
O=C(O)c1cc2c(nc(CN3CCC(Oc4ccnc(Cc5ccc(Cl)cc5)n4)CC3)n2C[C@@H]2CCO2)s1	9.10	–
Cn1ncc2ccc(Cc3cccc(OC4CCN(Cc5nc6ccc(C(=O)O)nc6n5C[C@@H]5CCO5)CC4)n3)c(F)c21	6.99	–
O=C(O)c1cc2c(nc(CN3CCC(Oc4cccc(COc5ccc(Cl)cc5)n4)CC3)n2C[C@@H]2CCO2)s1	9.04	–
CC1(c2ccc(COc3cccc(-c4ccc(Cc5nc6ccc(C(=O)O)nc6n5C[C@@H]5CCO5)c(F)c4)n3)c(F)c2)CC(F)(F)C1	8.58	–
O=C(O)c1ccc2nc(CN3CCC(Oc4cccc(Cc5ccc(Cl)c6occc56)n4)CC3)n(C[C@@H]3CCO3)c2n1	9.46	–
O=C(O)c1ccc2nc(CN3CCC(Oc4cccc(Cc5ccc6cn[nH]c6c5F)n4)CC3)n(C[C@@H]3CCO3)c2n1	7.33	–
N#Cc1ccc(Cc2cccc(OC3CCN(Cc4nc5sc(C(=O)O)cc5n4C[C@@H]4CCO4)CC3)n2)c2occc12	7.01	–
O=C(O)c1ccc2nc(CN3CC=C(c4cccc(OCc5ccc(CC(F)(F)F)cc5F)n4)CC3)n(C[C@@H]3CCO3)c2n1	9.89	–
O=C(O)c1ccc2nc(CN3CCC(Oc4cccc(Cc5ccc6cnn(CC(F)F)c6c5F)n4)CC3)n(C[C@@H]3CCO3)c2n1	8.47	–
COc1cc2c(Cl)ccc(OCc3cccc(OC4CCN(Cc5nc6ccc(C(=O)O)cc6n5C[C@@H]5CCO5)CC4)n3)c2o1	9.70	–
Cn1ncc2ccc(Cc3cccc(OC4CCN(Cc5nc6c(F)cc(C(=O)O)cc6n5C[C@@H]5CCO5)CC4)n3)c(F)c21	9.02	–
O=C(O)c1ccc2nc(CN3CCC(Oc4cccc(COc5cc(Cl)c6occc6c5)n4)CC3)n(C[C@@H]3CCO3)c2n1	8.44	–

SMILES	pEC50 [1]	other results
O=C(O)c1cc(F)c2nc(CN3CC=C(c4cccc(OCc5ccc(CC(F)(F)F)cc5F)n4)CC3)n(C[C@@H]3CCO3)c2c1	10.02	–
O=C(O)c1ccc2nc(CN3CC=C(c4cccc(OCc5ccc(CC(F)F)cc5F)n4)CC3)n(C[C@@H]3CCO3)c2n1	9.89	–
N#Cc1ccc(Cc2cccc(OC3CCN(Cc4nc5sc(C(=O)O)cc5n4C[C@@H]4CCO4)CC3)n2)c(F)c1	8.01	–
O=C(O)c1cc2c(nc(CN3CCC(Oc4ccnc(Cc5ccc(Cl)c6ccoc56)n4)CC3)n2C[C@@H]2CCO2)s1	8.74	–
O=C(O)c1ccc2nc(CN3CCC(Oc4cccc(COc5ccc(Cl)c6cc(F)oc56)n4)CC3)n(C[C@@H]3CCO3)c2c1	9.68	–
N#Cc1ccc(Cc2cccc(OC3CCN(Cc4nc5ccc(C(=O)O)cc5n4C[C@@H]4CCO4)CC3)n2)c(F)c1	8.94	–
O=C(O)c1cc(F)c2nc(CN3CCC(c4cccc(OCc5ccc(CC(F)(F)F)cc5F)n4)CC3)n(C[C@@H]3CCO3)c2c1	9.46	–
O=C(O)c1ccc2nc(CN3CCC(Oc4cccc(Cc5ccc(C6COC6)cc5)n4)CC3)n(C[C@@H]3CCO3)c2n1	7.25	–
O=C(O)c1ccc2nc(CN3CCC(Oc4ccnc(Cc5ccc(Cl)c6ccoc56)n4)CC3)n(C[C@@H]3CCO3)c2n1	9.47	–
O=C(O)c1cc2c(nc(CN3CCC(Oc4cccc(Cc5ccc(Cl)c6ccoc56)n4)CC3)n2C[C@@H]2CCO2)s1	7.16	–
COc1ccc(Cc2cccc(OC3CCN(Cc4nc5sc(C(=O)O)cc5n4C[C@@H]4CCO4)CC3)n2)cc1	7.69	–
Cc1nn(C)c2c(F)c(Cc3cccc(OC4CCN(Cc5nc6ccc(C(=O)O)nc6n5C[C@@H]5CCO5)CC4)n3)ccc12	8.76	–
O=C(O)c1ccc2nc(CN3CCC(Oc4cccc(Cc5ccc(Cl)c6c5OCC6)n4)CC3)n(C[C@@H]3CCO3)c2c1	9.96	–
O=C(O)c1ccc2nc(CN3CCC(Oc4cccc(COc5ccc6c(Cl)nn(CC(F)F)c6c5F)n4)CC3)n(C[C@@H]3CCO3)c2n1	9.49	–
O=C(O)c1cc2c(nc(CN3CCC(Oc4nccc(Cc5ccc(Cl)cc5)n4)CC3)n2C[C@@H]2CCO2)s1	6.40	–
O=C(O)c1cc2c(nc(CN3CCC(Oc4ccnc(COc5ccc(Cl)cc5F)n4)CC3)n2C[C@@H]2CCO2)s1	9.70	–
Cn1ncc2ccc(Cc3cccc(OC4CCN(Cc5nc6sc(C(=O)O)cc6n5C[C@@H]5CCO5)CC4)n3)cc21	6.59	–
N#Cc1ccc(Cc2cccc(OC3CCN(Cc4nc5sc(C(=O)O)cc5n4C[C@@H]4CCO4)CC3)n2)cc1	8.26	–
O=C(O)c1cc2c(nc(CN3CCC(Oc4cccc(Cc5ccc6cnn(CC(F)F)c6c5)n4)CC3)n2C[C@@H]2CCO2)s1	7.84	–
Cn1ccc(-c2ccc(Cc3cccc(OC4CCN(Cc5nc6sc(C(=O)O)cc6n5C[C@@H]5CCO5)CC4)n3)cc2)n1	6.18	–
N#Cc1ccc(COc2cccc(OC3CCN(Cc4nc5sc(C(=O)O)cc5n4C[C@@H]4CCO4)CC3)n2)c(F)c1	8.01	–

SMILES	pEC50 [1]	other results
O=C(O)c1cc2c(nc(CN3CCC(Oc4cccc(Cc5ccc(-c6ccn(C(F)F)n6)cc5)n4)CC3)n2C[C@@H]2CCO2)s1	7.77	–
O=C(O)c1cc2c(nc(CN3CCC(Oc4cccc(COc5ccc(Cl)cc5F)n4)CC3)n2C[C@@H]2CCO2)s1	8.75	–
CC1(c2ccc(COc3cccc(C4=CCN(Cc5nc6ccc(C(=O)O)cc6n5C[C@@H]5CCO5)CC4)n3)c(F)c2)CC(F)(F)C1	8.21	–
O=C(O)c1cc2c(nc(CN3CCC(Oc4cccc(Cc5ccccc5F)n4)CC3)n2C[C@@H]2CCO2)s1	7.09	–
O=C(O)c1cc2c(nc(CN3CCC(Oc4cccc(Cc5ccc(Cl)cc5)n4)CC3)n2C[C@@H]2CCO2)s1	8.58	–
O=C(O)c1cc(F)c2nc(CN3CC=C(c4cccc(OCc5ccc(CC(F)F)cc5F)n4)CC3)n(C[C@@H]3CCO3)c2c1	10.82	–
O=C(O)c1ccc2nc(CN3CCC(c4cccc(OCc5ccc(CC(F)F)cc5F)n4)CC3)n(C[C@@H]3CCO3)c2c1	9.59	–
O=C(O)c1ccc2nc(CN3CCC(Oc4cccc(COc5ccc6cn[nH]c6c5)n4)CC3)n(C[C@@H]3CCO3)c2n1	9.08	–
Cn1nc(Cl)c2ccc(OCc3cccc(OC4CCN(Cc5nc6ccc(C(=O)O)nc6n5C[C@@H]5CCO5)CC4)n3)c(F)c21	9.10	–
N#Cc1ccc(OCc2cccc(OC3CCN(Cc4nc5ccc(C(=O)O)cc5n4C[C@@H]4CCO4)CC3)n2)c(OC(F)(F)F)c1	9.34	–
O=C(O)c1cc2c(nc(CN3CCC(Oc4cccc(Cc5ccc(Cl)cc5F)n4)CC3)n2C[C@@H]2CCO2)s1	8.43	–
N#Cc1ccc(OCc2cccc(OC3CCN(Cc4nc5sc(C(=O)O)cc5n4C[C@@H]4CCO4)CC3)n2)c(F)c1	9.28	inhibition at 10 µM [2]: 0.9%
COc1cc(C(=O)O)cc2c1nc(CN1CCC(c3cccc(OCc4ccc(C5CC(F)(F)C5)cc4F)n3)CC1)n2C[C@@H]1CCO1	10.80	half-life [3]: 1.5 h; Cmax [4]: 20.2 ng/mL; AUC(0-inf) [5]: 61.8 ng·h/mL; CL/F [6]: 1490 mL/min/kg; Fa at 24 h [7]: 1.99%; Tmax at 24 h [8]: 1.67 h
O=C(O)c1ccc2nc(CN3CCC(c4cccc(OCc5ccc(C6CC(F)(F)C6)cc5F)n4)CC3)n(C[C@@H]3CCO3)c2c1	10.06	–
C[C@H]1CN(c2cccc(OCc3ccc(CC(F)F)cc3F)n2)CCN1Cc1nc2c(F)cc(C(=O)O)cc2n1C[C@@H]1CCO1	10.15	–
Cn1ncc2ccc(Cc3cccc(OC4CCN(Cc5nc6sc(C(=O)O)cc6n5C[C@@H]5CCO5)CC4)n3)c(F)c21	7.11	–
N#Cc1ccc(OCc2nccc(OC3CCN(Cc4nc5sc(C(=O)O)cc5n4C[C@@H]4CCO4)CC3)n2)c(F)c1	9.49	–
O=C(O)c1cc(F)c2nc(CN3CCC(c4cccc(OCc5ccc(CC(F)F)cc5F)n4)CC3)n(C[C@@H]3CCO3)c2c1	10.02	–
COc1ccc(C(F)(F)F)cc1OCc1nccc(OC2CCN(Cc3nc4sc(C(=O)O)cc4n3C[C@@H]3CCO3)CC2)n1	7.71	–
